A word on the EC50: it is the concentration that produces a half-maximal response.

Structures are written as SMILES.

The results in this text go back to patent publication US20120202877A1 (priority 2009, published 2012).

The subject of the assay is A/Paris/1170/2007 (H1N1, Y274). Put plainly: microbe, parasite or virus in culture. The class given is cell-based. Conditions: Influenza A virus, H1N1, 72 h, read-out: EC50, 50% reduction of the average plaque diameter.

Consider `C=CCC1=C(C(=O)O)O[C@@H]([C@H](O)[C@H](O)CO)[C@H](NC(C)=O)[C@H]1O` [Compound 7, 5-Acetamido-2,6-anhydro-3,5-dideoxy-3-C-(prop-2′-enyl)-D-glycero-D-galacto-non-2-en-onic acid], for which the EC50 is 2200 µM. For `CC(=O)NC1C(O)C(CC=Cc2ccc(C)cc2)=C(C(=O)O)OC1C(O)C(O)CO` (stereo not drawn) [Compound 9d], the EC50 was found to be 40 µM. As to `CC(=O)N[C@H]1[C@H]([C@H](O)[C@H](O)CO)OC(C(=O)O)=C[C@@H]1O` [Neu5Ac2en, reference compound], the EC50 was found to be 8 µM.
